Source: US5260271A, “Nisin compositions for use as enhanced broad range bactericides” (Applied Microbiology, Inc., priority 1992, dated 1993)
Where no end group is shown, it is not given here.

Tests used:
S. typhimurium = assay: Bactericidal activity, percent bacterial survival of S. typhimurium suspension; type: cell-based, Salmonella typhimurium; conditions: for Percentage S. typhimurium Survival at 3 hours / % Survival at 2 hours: EDTA 0 mM
Protocol: (§1) All tests in the following examples were performed at 37° C. The efficacy of the enhanced broad range bactericides was determined by assaying bactericidal activity as measured by the percent bacterial survival after treatment with the bactericide. Generally, after incubation of a 10^7 cell per ml suspension of target species with the novel bactericide for specified lengths of time, bacteria were collected by centrifugation for 2 minutes. […] Surviving bacteria were determined by scoring colony forming units (CFU) after incubation for 24-48 hours at 37° C.
The control (Test #1) is identical to the control of Example 1 (Table 1).

E. coli = assay: Bactericidal activity, percent bacterial survival of E. coli suspension; type: cell-based, Escherichia coli; conditions: EDTA 0 mM, Triton X-100 0%, 20 mM Tris pH 8.0
Protocol: as §1
The effects of the bactericide were measured as a function of percentage bacteria survival after 2 hours.
Incubations were performed in 20 mM Tris, […] at 37° C.

K. pneumoniae = assay: Bactericidal activity, percent bacterial survival of K. pneumoniae suspension; type: cell-based, Klebsiella pneumoniae; conditions: EDTA 0 mM, 20 mM Tris pH 8.0
Protocol: as §1
The effect was measured as a function of percentage bacterial survival after 2 hours.

[1] = system: S. typhimurium on chicken muscle; assay: Bactericidal activity towards S. typhimurium on chicken muscle (unadhered cells); type: cell-based, Salmonella typhimurium; conditions: chicken muscle, EDTA 0 mM
Protocol: Incubations were performed in either 50 mM sodium acetate, pH 5.0, or 20 mM Tris, pH 8.0 at 37° C.
Cubes of chicken muscle were cleansed with sodium hypochlorite and povidone iodine prior to use. To inoculate the tissue, the cubes of chicken muscle were dipped into a 10^8 cells/ml suspension of S. typhimurium in 20 mM Tris HCl, pH 8.0. Excess moisture was removed from dipped cubes by tapping. The chicken samples were placed into sufficient buffer containing the nisin composition to cover the tissue and incubated for 2 hours at 37° C. after which the tissue was removed to sufficient Phage buffer to cover the tissue. The bacteria remaining in the test solution were collected by centrifugation, washed with Phage buffer, and combined with bacteria washed from the tissue by Phage buffer. The combined samples (termed "unadhered" cells) were serially diluted and 100 μl aliquots were plated for determination of surviving bacteria.
(§2) Cubes of chicken muscle were cleansed with sodium hypochlorite and povidone iodine prior to use. To inoculate the tissue, the cubes of chicken muscle were dipped into a 10^8 cells/ml suspension of S. typhimurium in 20 mM Tris HCl, pH 8.0. Excess moisture was removed from dipped cubes by tapping. The tissue was placed into sufficient buffer containing the nisin compositions to cover the tissue, and incubated for 2 hours at 37° C. after which the tissue was removed to sufficient Phage buffer to cover the tissue. The bacteria remaining in the test solution were collected by centrifugation, washed with Phage buffer, and combined with bacteria washed from the tissue by Phage buffer. The combined samples (termed "unadhered" cells) were serially diluted and 100 μl aliquots were plated for determination of surviving bacteria.
as §2, with “cleaned” for “cleansed”, “50” for “20”, “sodium acetate buffer,” for “Tris HCl,”, “5.0.” for “8.0.”, “containing” for “containing the”

Staphylococcus aureus = assay: Bactericidal activity towards Staphylococcus aureus, percent survival; type: cell-based; conditions: S. aureus, EDTA 0 mM
Protocol: (§3) All tests in the following examples were performed at 37° C. The efficacy of the enhanced broad range bactericides was determined by assaying bactericidal activity as measured by the percent bacterial survival after treatment with the bactericide. Generally, after incubation of a 10^7 cell per ml suspension of target species with the novel bactericide for specified lengths of time, bacteria were collected by centrifugation for 2 minutes. […] Surviving bacteria were determined by scoring colony forming units (CFU) after incubation for 24-48 hours at 37° C. An effective bactericide according to this invention is one which allows less than 0.1% of the initial viable count of the bacteria to survive.
Incubations were performed in 50 mM sodium acetate buffer, pH 5.0 or 20 m
TrisHCl buffer, pH 8.0 at 37° C.

Streptococcus mutans [2] = assay: Bactericidal activity and kinetics towards Streptococcus mutans in Tris buffer; type: cell-based; conditions: S. mutans; pH 8.0, Nisin 0.1 μg/ml, EDTA 0 mM
Protocol: (§6) All tests in the following examples were performed at 37° C. The efficacy of the enhanced broad range bactericides was determined by assaying bactericidal activity as measured by the percent bacterial survival after treatment with the bactericide. Generally, after incubation of a 10^7 cell per ml suspension of target species with the novel bactericide for specified lengths of time, bacteria were collected by centrifugation for 2 minutes. The bacterial pellet was washed free of the bactericide with a rescue buffer, termed herein Phage buffer (50mM Tris-HCl buffer pH 7.8, 1 mM MgSO4, 4 mM CaCl2, 0.1 M Nacl, and 0.1% gelatin), resuspended and serially diluted into Phage buffer, and 100 μl of the suspended bacteria were spread on nutrient agar plates. Surviving bacteria were determined by scoring colony forming units (CFU) after incubation for 24-48 hours at 37° C.
The suspensions were incubated for various times ranging from 0.5 to 60 minutes with the bactericides.
Incubations were performed in 20 mM TrisHCl, pH 7.3 at 37° C.

Listeria monocytogenes [3] = assay: Bactericidal activity towards Listeria monocytogenes in Tris buffer; type: cell-based; conditions: L. monocytogenes; pH 8.0, Nisin 3.0 μg/ml, EDTA 0 mM
Protocol: as §3
(§4) Incubations were performed in 20 mM TrisHCl, pH 8.0 at 37° C.

Coryneform bacteria = assay: Bactericidal activity towards Coryneform bacteria; type: cell-based; conditions: pH 8.0, Nisin 3 μg/ml, EDTA 0 mM
Protocol: as §3, §4

Streptococcus agalactiae = assay: Bactericidal activity towards Streptococcus agalactiae in milk; type: cell-based; conditions: for % survival at 2h: S. agalactiae in milk at 37° C., Monolaurin 0%
Protocol: as §3
However, the combination of the two agents, 0.1% monolaurin and nisin 0.2 μg/ml, is extremely potent towards S. agalactiae. […] Thus, when the application of nisin is limited by its available activity, a bactericide comprising nisin with a surfactant can be expected to be more useful.
(§5) Incubations were in milk at 37° C.

Listeria monocytogenes [4] = assay: Bactericidal activity towards Listeria monocytogenes in milk; type: cell-based; conditions: L. monocytogenes in milk at 37° C.; Nisin 100 μg/ml, Monooleate 0%
Protocol: as §3
An example of where the application of nisin is limited by its available activity is illustrated by the data in Table 15B.
as §5

Streptococcus mutans [5] = assay: Rapid bactericidal activity towards Streptococcus mutans in the presence of divalent cation, 10% Fetal Calf Serum; type: cell-based; conditions: S. mutans, Nisin 3, no EDTA, 0 mM
Protocol: as §6
Incubations performed in 10% Fetal Calf Serum at 37° C.

Nisin (ITSISLCTPGCKTGALMGCNMKTATCHCSIHVSK; not fully specified (residues 2, 5, 33, bridges); cysteine pairing not given here; UniProt P13068 24-57, looked up) [polypeptide bacteriocin with antimicrobial properties produced by strains of Streptococcus lactis; known food preservative]
Percentage S. typhimurium Survival at 3 hours (S. typhimurium; Nisin 50 µg/ml, 20 mM Tris pH 8.0, 37° C): 7.0%
Percentage S. typhimurium Survival at 3 hours (S. typhimurium; Nisin 100 µg/ml, 20 mM Tris pH 8.0, 37° C): 1.6%
Percentage S. typhimurium Survival at 3 hours (S. typhimurium; Nisin […], 20 mM Tris pH 8.0, 37° C): 51.3%
survival (S. typhimurium; S. typhimurium, 100 μg/ml nisin in the absence of EDTA, 20 mM Tris pH 8.0): 1.6%
% Survival at 2 hours (S. typhimurium; S. typhimurium, pH 5.0, Nisin 100 μg/ml): 0.6%
% Survival at 2 hours (S. typhimurium; S. typhimurium, pH 8.0, Nisin 100 μg/ml): 4%
Percentage S. typhimurium Survival at 3 hours (S. typhimurium; Table 2: Nisin 10 μg/ml, Triton X-100 0%, 20 mM Tris pH 8.0): 51.3%
Percentage S. typhimurium Survival at 3 hours (S. typhimurium; Table 2: Nisin 50 μg/ml, Triton X-100 0%, 20 mM Tris pH 8.0): 7.0%
Percentage S. typhimurium Survival at 3 hours (S. typhimurium; Table 2: Nisin 100 μg/ml, Triton X-100 0%, 20 mM Tris pH 8.0): 1.6%
Percentage S. typhimurium Survival at 3 hours (S. typhimurium; Table 3: Nisin 10 μg/ml, Tween20 0%, 20 mM Tris pH 8.0): 51.3%
Percentage S. typhimurium Survival at 3 hours (S. typhimurium; Table 3: Nisin 50 μg/ml, Tween20 0%, 20 mM Tris pH 8.0): 7.0%
Percentage S. typhimurium Survival at 3 hours (S. typhimurium; Table 3: Nisin 100 μg/ml, Tween20 0%, 20 mM Tris pH 8.0): 1.6%
% Survival at 2 hours (S. typhimurium; Table 8, S. typhimurium, Nisin 100 μg/ml, BSA 0%, Tris buffer): 1.6%
Percentage E. coli Survival at 2 hours (E. coli; Nisin 30 μg/ml): 27%
Percentage E. coli Survival at 2 hours (E. coli; Nisin 100 μg/ml): 25%
Percentage E. coli Survival at 2 hours (E. coli; Nisin 300 μg/ml): 8.5%
% Survival at 2 hours (K. pneumoniae; Nisin 100 μg/ml): 50%
% Survival at 2 hours (K. pneumoniae; Nisin 300 μg/ml): 38%
% Survival at 2 hours (Unadhered cells) ([1]; pH 5.0, Nisin 300 μg/ml): 0.1%
% Survival at 2 hours (Unadhered cells) ([1]; pH 8.0, Nisin 300 μg/ml, 1% Bovine serum albumin): 0.02%
% Survival at 2 hours (Unadhered cells) ([1]; pH 8.0, Nisin 300 μg/ml): 7.5%
% Survival 2 hr (Staphylococcus aureus; pH 5.0, Nisin 3.0 μg/ml): 0.6%
% Survival 2 hr (Staphylococcus aureus; pH 8.0, Nisin 3.0 μg/ml): 7.4%
% Survival after 2 hr (Streptococcus mutans [2]): 4.3%
% Survival after 2 hr (Listeria monocytogenes [3]): 0.71%
% Survival 2 hr (Coryneform bacteria): 0.22%
% survival at 2h (Streptococcus agalactiae; Nisin 0.02 μg/ml): 100%
% survival at 2h (Streptococcus agalactiae; Nisin 0.2 μg/ml): 2.2%
bactericidal activity towards Streptococcus agalactiae (Streptococcus agalactiae; nisin at concentrations up to 0.2 μg/ml, in milk): does not exhibit significant bactericidal activity
% Survival 2 hr (Listeria monocytogenes [4]): 0.56%
% survival at 1 min. (Streptococcus mutans [5]): 2.9%
